Experimental data: paper doi:10.1101/2020.06.11.145995v1 (biorxiv, 2020)
Read-outs that look alike come from different tables or passages of the source. One block for each compound: values may come before it.

Columns and labels:
Assay in all cases: biochemical
CDK11 = CDK11 (Homo sapiens, UniProt Q9BWU1)
DMPK2 = DMPK2 (Homo sapiens, UniProt Q6DT37)
FGFR4 = FGFR4 (Homo sapiens, UniProt P22455)
FLT3(D835H) = FLT3(D835H) (Homo sapiens, UniProt P36888, D835H)
HIPK1 = HIPK1 (Homo sapiens, UniProt Q86Z02)
IKK-alpha = IKK-alpha (Homo sapiens, UniProt O15111)
JNK1 = JNK1 (Homo sapiens, UniProt P45983)
LCK = LCK (Homo sapiens, UniProt P06239)
MAP3K3 = MAP3K3 (Homo sapiens, UniProt Q99759)
MEK2 = MEK2 (Homo sapiens, UniProt P36507)
MLK3 = MLK3 (Homo sapiens, UniProt Q16584)
MTOR = MTOR (Homo sapiens, UniProt P42345)
MYO3A = MYO3A (Homo sapiens, UniProt Q8NEV4)
[1] = target: ABL1(M351T)-phosphorylated (Homo sapiens, UniProt P00519, M351T)
[2] = target: ABL1(Q252H)-phosphorylated (Homo sapiens, UniProt P00519, Q252H)
AAK1 = AAK1 (Homo sapiens, UniProt Q2M2I8)
NEK9 = NEK9 (Homo sapiens, UniProt Q8TD19)
PAK4 = PAK4 (Homo sapiens, UniProt O96013)
PCTK2 = PCTK2 (Homo sapiens, UniProt Q00537)
PHKG2 = PHKG2 (Homo sapiens, UniProt P15735)
PRKCQ = PRKCQ (Homo sapiens, UniProt Q04759)
PRKR = PRKR (Homo sapiens, UniProt P19525)
RET(M918T) = RET(M918T) (Homo sapiens, UniProt P07949, M918T)
RET(V804L) = RET(V804L) (Homo sapiens, UniProt P07949, V804L)
RIPK1 = RIPK1 (Homo sapiens, UniProt Q13546)
TRKC = TRKC (Homo sapiens, UniProt Q16288)
VRK2 = VRK2 (Homo sapiens, UniProt Q86Y07)
YANK1 = YANK1 (Homo sapiens, UniProt Q8WU08)
p38-delta = p38-delta (Homo sapiens, UniProt O15264)
[3] = read-out: CPT-1-70-1 (1uM) % control
[4] = read-out: CPT-1-70-1 (1μM) % control
[5] = read-out: HYJ-2-002-1 (1uM) % control
[6] = read-out: HYJ-2-002-1 (1μM) % control

Sequence of PHKG2 (P15735 whole entry): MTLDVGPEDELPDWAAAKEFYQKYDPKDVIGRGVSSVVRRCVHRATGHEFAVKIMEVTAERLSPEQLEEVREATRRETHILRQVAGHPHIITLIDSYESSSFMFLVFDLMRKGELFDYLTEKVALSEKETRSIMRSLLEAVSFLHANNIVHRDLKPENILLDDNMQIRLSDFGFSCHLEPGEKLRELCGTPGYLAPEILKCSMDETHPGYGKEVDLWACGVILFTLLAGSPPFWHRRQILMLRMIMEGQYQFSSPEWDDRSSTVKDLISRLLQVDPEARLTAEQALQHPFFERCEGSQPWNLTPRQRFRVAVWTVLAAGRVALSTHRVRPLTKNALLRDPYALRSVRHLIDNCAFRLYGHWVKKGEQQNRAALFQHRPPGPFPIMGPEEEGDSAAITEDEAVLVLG
Sequence of YANK1 (Q8WU08 whole entry): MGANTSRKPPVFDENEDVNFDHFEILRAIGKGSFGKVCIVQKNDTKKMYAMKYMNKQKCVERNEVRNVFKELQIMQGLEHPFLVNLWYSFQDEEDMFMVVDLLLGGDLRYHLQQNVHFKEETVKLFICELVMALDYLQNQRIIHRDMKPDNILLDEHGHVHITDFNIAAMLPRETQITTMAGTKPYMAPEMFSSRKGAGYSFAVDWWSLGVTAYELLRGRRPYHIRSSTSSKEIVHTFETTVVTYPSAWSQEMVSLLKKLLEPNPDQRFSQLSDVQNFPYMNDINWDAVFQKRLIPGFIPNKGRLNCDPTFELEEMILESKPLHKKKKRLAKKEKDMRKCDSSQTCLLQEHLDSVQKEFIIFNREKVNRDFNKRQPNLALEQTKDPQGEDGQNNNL
Sequence of RET(V804L) (P07949 whole entry V804L): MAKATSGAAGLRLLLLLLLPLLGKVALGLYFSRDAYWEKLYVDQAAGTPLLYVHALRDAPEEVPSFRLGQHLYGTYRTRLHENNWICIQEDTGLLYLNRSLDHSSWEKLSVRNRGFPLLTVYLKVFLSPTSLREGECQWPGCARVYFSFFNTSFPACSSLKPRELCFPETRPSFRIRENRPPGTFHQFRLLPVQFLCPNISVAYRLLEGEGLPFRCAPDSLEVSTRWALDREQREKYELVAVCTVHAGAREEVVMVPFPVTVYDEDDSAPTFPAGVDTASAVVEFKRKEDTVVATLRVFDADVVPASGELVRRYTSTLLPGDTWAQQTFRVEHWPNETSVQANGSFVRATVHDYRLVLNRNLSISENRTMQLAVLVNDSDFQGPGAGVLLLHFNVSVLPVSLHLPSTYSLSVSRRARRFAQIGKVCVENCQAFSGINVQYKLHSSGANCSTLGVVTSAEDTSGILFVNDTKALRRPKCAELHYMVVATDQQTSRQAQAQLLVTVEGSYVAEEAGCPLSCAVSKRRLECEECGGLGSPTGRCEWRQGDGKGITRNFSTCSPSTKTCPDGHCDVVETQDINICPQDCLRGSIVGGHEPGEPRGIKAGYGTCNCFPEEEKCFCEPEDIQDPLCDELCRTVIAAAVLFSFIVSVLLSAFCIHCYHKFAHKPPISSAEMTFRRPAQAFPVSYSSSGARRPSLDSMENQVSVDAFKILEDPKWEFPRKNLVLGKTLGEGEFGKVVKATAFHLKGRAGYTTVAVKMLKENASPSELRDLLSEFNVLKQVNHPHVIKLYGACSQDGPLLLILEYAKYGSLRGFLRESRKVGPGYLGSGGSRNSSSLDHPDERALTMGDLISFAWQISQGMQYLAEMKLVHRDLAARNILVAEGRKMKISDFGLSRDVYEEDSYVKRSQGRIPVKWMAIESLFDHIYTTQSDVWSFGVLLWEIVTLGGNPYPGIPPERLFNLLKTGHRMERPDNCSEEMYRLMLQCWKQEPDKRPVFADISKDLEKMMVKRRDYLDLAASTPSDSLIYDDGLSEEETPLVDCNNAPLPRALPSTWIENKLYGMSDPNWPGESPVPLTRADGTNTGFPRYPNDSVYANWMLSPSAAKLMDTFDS
Sequence of LCK (P06239 whole entry): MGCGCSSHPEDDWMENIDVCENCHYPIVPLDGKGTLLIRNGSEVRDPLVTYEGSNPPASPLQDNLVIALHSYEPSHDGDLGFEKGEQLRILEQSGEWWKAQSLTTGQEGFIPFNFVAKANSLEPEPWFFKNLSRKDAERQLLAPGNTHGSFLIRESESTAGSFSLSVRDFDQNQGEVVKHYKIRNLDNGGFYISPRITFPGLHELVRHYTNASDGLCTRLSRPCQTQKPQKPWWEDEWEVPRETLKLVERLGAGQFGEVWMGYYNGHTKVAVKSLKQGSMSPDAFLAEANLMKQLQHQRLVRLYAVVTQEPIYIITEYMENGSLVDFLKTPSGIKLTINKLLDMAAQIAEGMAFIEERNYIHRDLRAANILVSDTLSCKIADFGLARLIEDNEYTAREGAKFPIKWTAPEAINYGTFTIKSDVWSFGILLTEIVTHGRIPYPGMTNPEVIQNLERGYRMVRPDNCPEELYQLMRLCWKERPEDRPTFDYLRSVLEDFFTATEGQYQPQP
Sequence of MEK2 (P36507 whole entry): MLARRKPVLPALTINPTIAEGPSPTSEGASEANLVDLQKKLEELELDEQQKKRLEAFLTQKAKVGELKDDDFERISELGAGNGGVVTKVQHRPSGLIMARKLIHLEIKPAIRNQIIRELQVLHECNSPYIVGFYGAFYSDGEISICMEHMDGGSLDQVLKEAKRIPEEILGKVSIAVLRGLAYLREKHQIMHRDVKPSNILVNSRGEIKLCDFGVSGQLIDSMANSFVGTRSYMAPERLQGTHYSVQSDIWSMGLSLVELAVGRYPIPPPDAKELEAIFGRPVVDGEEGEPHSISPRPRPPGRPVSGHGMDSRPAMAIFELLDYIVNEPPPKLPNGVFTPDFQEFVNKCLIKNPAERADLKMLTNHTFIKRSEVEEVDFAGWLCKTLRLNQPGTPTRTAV
Sequence of TRKC (Q16288 whole entry): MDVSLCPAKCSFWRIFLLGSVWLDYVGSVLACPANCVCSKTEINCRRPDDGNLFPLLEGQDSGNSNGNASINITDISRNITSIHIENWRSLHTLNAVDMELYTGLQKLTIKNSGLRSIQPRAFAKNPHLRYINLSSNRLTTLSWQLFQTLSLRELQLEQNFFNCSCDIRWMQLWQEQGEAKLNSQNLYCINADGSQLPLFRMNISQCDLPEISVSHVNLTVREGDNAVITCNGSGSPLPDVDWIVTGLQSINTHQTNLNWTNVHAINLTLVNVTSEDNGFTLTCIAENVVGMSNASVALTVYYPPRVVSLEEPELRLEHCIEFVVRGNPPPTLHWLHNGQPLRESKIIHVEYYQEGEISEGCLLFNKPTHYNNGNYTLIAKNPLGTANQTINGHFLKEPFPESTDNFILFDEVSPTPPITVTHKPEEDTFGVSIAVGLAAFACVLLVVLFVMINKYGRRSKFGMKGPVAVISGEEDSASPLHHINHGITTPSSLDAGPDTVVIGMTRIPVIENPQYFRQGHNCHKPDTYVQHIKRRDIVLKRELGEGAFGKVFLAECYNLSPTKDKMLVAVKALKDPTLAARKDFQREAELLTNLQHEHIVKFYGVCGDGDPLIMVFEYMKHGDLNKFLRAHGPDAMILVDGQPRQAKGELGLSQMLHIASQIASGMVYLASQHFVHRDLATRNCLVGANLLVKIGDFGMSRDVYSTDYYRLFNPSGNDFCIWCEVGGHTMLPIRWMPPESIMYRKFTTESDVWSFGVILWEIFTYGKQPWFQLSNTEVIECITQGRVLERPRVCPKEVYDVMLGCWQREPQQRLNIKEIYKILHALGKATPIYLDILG
Sequence of CDK11 (Q9BWU1 whole entry): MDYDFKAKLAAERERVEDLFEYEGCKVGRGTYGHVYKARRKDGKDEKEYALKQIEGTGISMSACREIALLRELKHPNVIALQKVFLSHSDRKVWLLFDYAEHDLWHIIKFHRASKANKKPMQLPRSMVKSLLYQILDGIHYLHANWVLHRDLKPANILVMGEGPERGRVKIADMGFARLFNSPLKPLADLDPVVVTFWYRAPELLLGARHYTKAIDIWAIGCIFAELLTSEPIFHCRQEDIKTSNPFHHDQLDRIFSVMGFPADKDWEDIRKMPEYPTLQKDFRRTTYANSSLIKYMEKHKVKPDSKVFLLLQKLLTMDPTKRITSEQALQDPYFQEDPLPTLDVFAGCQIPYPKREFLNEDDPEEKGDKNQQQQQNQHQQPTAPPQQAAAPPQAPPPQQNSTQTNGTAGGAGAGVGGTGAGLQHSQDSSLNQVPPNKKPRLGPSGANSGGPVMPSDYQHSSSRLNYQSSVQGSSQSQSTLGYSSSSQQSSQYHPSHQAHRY
Sequence of p38-delta (O15264 whole entry): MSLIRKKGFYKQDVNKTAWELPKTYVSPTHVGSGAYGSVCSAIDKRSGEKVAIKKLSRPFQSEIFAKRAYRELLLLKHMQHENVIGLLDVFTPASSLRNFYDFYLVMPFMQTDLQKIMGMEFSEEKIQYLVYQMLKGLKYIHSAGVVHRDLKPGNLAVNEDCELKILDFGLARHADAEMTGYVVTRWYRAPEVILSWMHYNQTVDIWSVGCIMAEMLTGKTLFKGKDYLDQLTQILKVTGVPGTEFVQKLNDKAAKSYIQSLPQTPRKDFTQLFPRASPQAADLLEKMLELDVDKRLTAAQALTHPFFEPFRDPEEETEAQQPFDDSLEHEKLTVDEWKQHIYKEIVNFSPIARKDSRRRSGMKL
Sequence of JNK1 (P45983 whole entry): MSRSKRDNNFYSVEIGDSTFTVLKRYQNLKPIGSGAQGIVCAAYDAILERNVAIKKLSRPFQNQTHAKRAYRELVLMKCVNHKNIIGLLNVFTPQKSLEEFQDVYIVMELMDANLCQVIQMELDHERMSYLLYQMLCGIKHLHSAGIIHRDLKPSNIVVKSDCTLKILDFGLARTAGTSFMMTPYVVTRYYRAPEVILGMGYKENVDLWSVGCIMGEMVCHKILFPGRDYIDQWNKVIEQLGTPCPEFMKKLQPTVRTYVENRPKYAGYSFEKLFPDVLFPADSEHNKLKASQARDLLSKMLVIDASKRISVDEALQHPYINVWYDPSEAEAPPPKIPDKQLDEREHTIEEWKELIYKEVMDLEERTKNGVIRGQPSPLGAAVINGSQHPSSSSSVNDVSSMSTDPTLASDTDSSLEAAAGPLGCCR
Sequence of RET(M918T) (P07949 whole entry M918T): as the sequence (P07949 whole entry V804L) above, with L804V, M918T counted along it

Compound: CN1CCN(c2ccc(Nc3nc(Oc4ccc(NC(=O)CCl)cc4)c4cc[nH]c4n3)cc2)CC1 [CPT1-70-1]
remaining activity at 1 µM (CDK11; [3]): 100% | remaining activity at 1 µM (DMPK2; [3]): 67% | remaining activity at 1 µM (FGFR4; [3]): 60% | remaining activity at 1 µM (FLT3(D835H); [3]): 10% | remaining activity at 1 µM (HIPK1; [3]): 52% | remaining activity at 1 µM (IKK-alpha; [3]): 85% | remaining activity at 1 µM (JNK1; [3]): 2.4% | remaining activity at 1 µM (LCK; [3]): 32% | remaining activity at 1 µM (MAP3K3; [3]): 16% | remaining activity at 1 µM (MEK2; [3]): 19% | remaining activity at 1 µM (MLK3; [3]): 91% | remaining activity at 1 µM (MTOR; [3]): 66% | remaining activity at 1 µM (MYO3A; [3]): 88% | remaining activity at 1 µM [1, 3]: 86% | remaining activity at 1 µM [2, 3]: 100% | remaining activity at 1 µM (AAK1; [4]): 18% | remaining activity at 1 µM (NEK9; [4]): 100% | remaining activity at 1 µM (PAK4; [4]): 12% | remaining activity at 1 µM (PCTK2; [4]): 100% | remaining activity at 1 µM (PHKG2; [4]): 72% | remaining activity at 1 µM (PRKCQ; [4]): 100% | remaining activity at 1 µM (PRKR; [4]): 93% | remaining activity at 1 µM (RET(M918T); [4]): 13% | remaining activity at 1 µM (RET(V804L); [4]): 11% | remaining activity at 1 µM (RIPK1; [4]): 0.15% | remaining activity at 1 µM (TRKC; [4]): 61% | remaining activity at 1 µM (VRK2; [4]): 100% | remaining activity at 1 µM (YANK1; [4]): 100% | remaining activity at 1 µM (p38-delta; [4]): 100%

remaining activity at 1 µM (CDK11; [5]): 14% | remaining activity at 1 µM (DMPK2; [5]): 92% | remaining activity at 1 µM (FGFR4; [5]): 4.4% | remaining activity at 1 µM (FLT3(D835H); [5]): 7.3% | remaining activity at 1 µM (HIPK1; [5]): 51% | remaining activity at 1 µM (IKK-alpha; [5]): 0.2% | remaining activity at 1 µM (JNK1; [5]): 72% | remaining activity at 1 µM (LCK; [5]): 1.1% | remaining activity at 1 µM (MAP3K3; [5]): 1.6% | remaining activity at 1 µM (MEK2; [5]): 22% | remaining activity at 1 µM (MLK3; [5]): 53% | remaining activity at 1 µM (MTOR; [5]): 93% | remaining activity at 1 µM (MYO3A; [5]): 59% | remaining activity at 1 µM [1, 5]: 0.85% | remaining activity at 1 µM [2, 5]: 1% | remaining activity at 1 µM (AAK1; [6]): 100% | remaining activity at 1 µM (PAK4; [6]): 99% | remaining activity at 1 µM (PCTK2; [6]): 100% | remaining activity at 1 µM (PHKG2; [6]): 73% | remaining activity at 1 µM (PRKCQ; [6]): 82% | remaining activity at 1 µM (PRKR; [6]): 75% | remaining activity at 1 µM (RET(M918T); [6]): 0.95% | remaining activity at 1 µM (RET(V804L); [6]): 1.4% | remaining activity at 1 µM (RIPK1; [6]): 8.2% | remaining activity at 1 µM (TRKC; [6]): 8% | remaining activity at 1 µM (VRK2; [6]): 100% | remaining activity at 1 µM (YANK1; [6]): 100% | remaining activity at 1 µM (p38-delta; [6]): 66%
Compound: CCN1CCN(Cc2ccc(NC(=O)c3ccc(C)c(CCc4cnc5[nH]ccc5c4OC)c3)cc2C(F)(F)F)CC1 [HYJ-2-002-1]
remaining activity at 1 µM (NEK9; [6]): 38%
